Where “and” joins values, the source holds several entries; their conditions need not be identical. Equal values may be shown once. Inconclusive results and toxic doses are left out. Cut-off read from the data, not from the text of the source: active = T/C of 150% or more; inactive = T/C below 125%.
System: L1210 leukemia ip in BDF1 mice, survival T/C
Assay: NCI In Vivo Anticancer Drug Screen. Data for tumor model L1210 Leukemia (intraperitoneal) in B6D2F1 (BDF1) mice
Conditions: endpoint: mean survival time, higher = longer survival
How it was run: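 Each compound was tested against a transplantable tumor grown in mice. The endpoint was survival, with treated animals benchmarked against vehicle controls as a simple ratio.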

[1] = dose: 100.0 mg/kg/injection, schedule: Q04DX003 (ip), vehicle: saline with Tween-80
[2] = dose: 200.0 mg/kg/injection, schedule: Q04DX003 (ip), vehicle: saline with Tween-80
[3] = dose: 400.0 mg/kg/injection, schedule: Q04DX003 (ip), vehicle: saline with Tween-80
[4] = dose: 100.0 mg/kg/injection, schedule: Q04DX003 (ip), vehicle: Klucel (hydroxypropylcellulose) (HPC)
[5] = dose: 200.0 mg/kg/injection, schedule: Q04DX003 (ip), vehicle: Klucel (hydroxypropylcellulose) (HPC)
[6] = dose: 400.0 mg/kg/injection, schedule: Q04DX003 (ip), vehicle: Klucel (hydroxypropylcellulose) (HPC)
[7] = dose: 100.0 mg/kg/injection, schedule: Q01DX001 (ip), vehicle: carboxymethylcellulose (CMC)
[8] = dose: 200.0 mg/kg/injection, schedule: Q01DX001 (ip), vehicle: carboxymethylcellulose (CMC)
[9] = dose: 400.0 mg/kg/injection, schedule: Q01DX001 (ip), vehicle: carboxymethylcellulose (CMC)
[10] = dose: 100.0 mg/kg/injection, schedule: Q04DX002 (ip), vehicle: Klucel (hydroxypropylcellulose) (HPC)
[11] = dose: 200.0 mg/kg/injection, schedule: Q04DX002 (ip), vehicle: Klucel (hydroxypropylcellulose) (HPC)
[12] = dose: 400.0 mg/kg/injection, schedule: Q04DX002 (ip), vehicle: Klucel (hydroxypropylcellulose) (HPC)
[13] = dose: 75.0 mg/kg/injection, schedule: Q01DX001 (ip), vehicle: saline
[14] = dose: 100.0 mg/kg/injection, schedule: Q04DX002 (ip), vehicle: saline
[15] = dose: 200.0 mg/kg/injection, schedule: Q04DX002 (ip), vehicle: saline
[16] = dose: 400.0 mg/kg/injection, schedule: Q01DX001 (ip), vehicle: saline

Measured: T/C

Cc1cccc(C)c1N=C=O
inactive: dose: 100.0 mg/kg/injection, schedule: Q01DX009 (ip), vehicle: other 93 % of control | [1] 105 % of control | dose: 200.0 mg/kg/injection, schedule: Q01DX009 (ip), vehicle: other 106 % of control | [2] 100 % of control | [3] 109 % of control

CCCCNC(=O)Nc1ccc(C(=O)O)c(O)c1
inactive: [4] 100 % of control | [5] 94 % of control | [6] 93 % of control

Cc1ccnc(NS(=O)(=O)c2ccc(N=Nc3c(N)n(C)c(=O)n(C)c3=O)cc2)n1
inactive: [7] 98 % of control | [8] 93 % of control | [9] 95 % of control

CC12NC(=O)NC1(C)NC(=O)N2 (stereo unspecified)
inactive: dose: 25.0 mg/kg/injection, schedule: Q01DX009 (ip), vehicle: saline 89 % of control | dose: 50.0 mg/kg/injection, schedule: Q01DX009 (ip), vehicle: saline 95 % of control | dose: 100.0 mg/kg/injection, schedule: Q01DX009 (ip), vehicle: saline 96 % of control and 89 % of control | [1] 96 % of control | dose: 200.0 mg/kg/injection, schedule: Q01DX009 (ip), vehicle: saline 100 % of control | [2] 102 % of control | [3] 96 % of control

Cc1ccc(C)c(NC(=O)NC(C)(C)C)c1
inactive: [10] 105 % of control | [11] 102 % of control | [12] 117 % of control

O=[N+]([O-])c1c[c]([Hg][Cl])c(O)[c]([Hg][Cl])c1
inactive: dose: 3.13 mg/kg/injection, schedule: Q01DX009 (ip), vehicle: saline with Tween-80 88 % of control | dose: 3.13 mg/kg/injection, schedule: Q04DX002 (ip), vehicle: saline with Tween-80 107 % of control | dose: 3.13 mg/kg/injection, schedule: Q04DX003 (ip), vehicle: saline with Tween-80 88 % of control | dose: 6.25 mg/kg/injection, schedule: Q01DX009 (ip), vehicle: saline with Tween-80 86 % of control | dose: 6.25 mg/kg/injection, schedule: Q04DX002 (ip), vehicle: saline with Tween-80 96 % of control | dose: 6.25 mg/kg/injection, schedule: Q04DX003 (ip), vehicle: saline with Tween-80 97 % of control | dose: 12.5 mg/kg/injection, schedule: Q01DX009 (ip), vehicle: saline with Tween-80 91 % of control | dose: 12.5 mg/kg/injection, schedule: Q04DX002 (ip), vehicle: saline with Tween-80 93 % of control | dose: 12.5 mg/kg/injection, schedule: Q04DX003 (ip), vehicle: saline with Tween-80 87 % of control

C[N+]1(C)CCNC(=O)CC1
inactive: [13] 105 % of control | dose: 150.0 mg/kg/injection, schedule: Q01DX001 (ip), vehicle: saline 94 % of control | dose: 300.0 mg/kg/injection, schedule: Q01DX001 (ip), vehicle: saline 105 % of control

Cc1cc(C)c(F)c(-c2c(N)c(C)cc(C)c2F)c1N
inactive: dose: 50.0 mg/kg/injection, schedule: Q01DX001 (ip), vehicle: Klucel (hydroxypropylcellulose) (HPC) 106 % of control | dose: 100.0 mg/kg/injection, schedule: Q01DX001 (ip), vehicle: Klucel (hydroxypropylcellulose) (HPC) 101 % of control | dose: 200.0 mg/kg/injection, schedule: Q01DX001 (ip), vehicle: Klucel (hydroxypropylcellulose) (HPC) 96 % of control

Cc1ccnc(/C=N/NC(N)=S)c1
inactive: [14] 108 % of control | [15] 86 % of control

CN=C(N)NN
inactive: dose: 30.0 mg/kg/injection, schedule: Q01DX Z (ip), vehicle: methylcellulose (MC) 102 % of control | dose: 60.0 mg/kg/injection, schedule: Q01DX Z (ip), vehicle: methylcellulose (MC) 97 % of control | dose: 120.0 mg/kg/injection, schedule: Q01DX Z (ip), vehicle: methylcellulose (MC) 105 % of control | dose: 175.0 mg/kg/injection, schedule: Q01DX001 (ip), vehicle: saline 105 % of control | dose: 240.0 mg/kg/injection, schedule: Q01DX Z (ip), vehicle: methylcellulose (MC) 98 % of control | dose: 265.0 mg/kg/injection, schedule: Q01DX001 (ip), vehicle: saline 104 % of control | dose: 375.0 mg/kg/injection, schedule: Q01DX Z (ip), vehicle: methylcellulose (MC) 111 % of control | [16] 98 % of control | dose: 480.0 mg/kg/injection, schedule: Q01DX Z (ip), vehicle: methylcellulose (MC) 107 % of control | dose: 600.0 mg/kg/injection, schedule: Q01DX001 (ip), vehicle: saline 104 % of control

CC(C)C(Br)C(Br)c1ccccc1 (stereo unspecified)
inactive: dose: 50.0 mg/kg/injection, schedule: Q01DX009 (ip), vehicle: saline with Tween-80 96 % of control | dose: 100.0 mg/kg/injection, schedule: Q01DX009 (ip), vehicle: saline with Tween-80 102 % of control | dose: 200.0 mg/kg/injection, schedule: Q01DX009 (ip), vehicle: saline with Tween-80 96 % of control

O=c1[nH]cnc2c1ncn2Cc1cccc(Cl)c1
inactive: dose: 50.0 mg/kg/injection, schedule: Q04DX002 (ip), vehicle: Klucel (hydroxypropylcellulose) (HPC) 86 % of control | [10] 94 % of control | [11] 91 % of control

C/C=C(\CC)C1(C(C)C)C(=O)NC(=O)NC1=O
inactive: [13] 91 % of control

O=C(Nc1cccc(C(F)(F)F)c1)OCCOc1ccc(Cl)cc1
inactive: [10] 89 % of control | [11] 96 % of control | [12] 101 % of control

Cc1[nH]c(=O)[nH]c(=O)c1Br
inactive: dose: 37.0 mg/kg/injection, schedule: Q01DX Z (ip), vehicle: methylcellulose (MC) 91 % of control | dose: 75.0 mg/kg/injection, schedule: Q01DX Z (ip), vehicle: methylcellulose (MC) 96 % of control | dose: 150.0 mg/kg/injection, schedule: Q01DX Z (ip), vehicle: methylcellulose (MC) 86 % of control

CC(=O)Nc1ccc(OC(C)(C)C)cc1
inactive: dose: 50.0 mg/kg/injection, schedule: Q01DX001 (ip), vehicle: saline 101 % of control | dose: 100.0 mg/kg/injection, schedule: Q01DX001 (ip), vehicle: saline 106 % of control | dose: 200.0 mg/kg/injection, schedule: Q01DX001 (ip), vehicle: saline 97 % of control | [16] 95 % of control

CCCCCCc1cc(N=Nc2ccc(S(=O)(=O)Nc3occ(C)c3C)cc2)c(O)cc1O
inactive: [7] 93 % of control | [8] 93 % of control | [9] 98 % of control

CCC(C)N=C(N)C(N)=NC(C)CC (stereo unspecified)
inactive: [14] 103 % of control | [15] 103 % of control

NC(=S)Nc1ccccc1
inactive: dose: 5.0 mg/kg/injection, schedule: Q01DX001 (ip), vehicle: saline 100 % of control | dose: 10.0 mg/kg/injection, schedule: Q01DX001 (ip), vehicle: saline 96 % of control | dose: 20.0 mg/kg/injection, schedule: Q01DX001 (ip), vehicle: saline 102 % of control | dose: 40.0 mg/kg/injection, schedule: Q01DX001 (ip), vehicle: saline 101 % of control | dose: 80.0 mg/kg/injection, schedule: Q01DX001 (ip), vehicle: saline 97 % of control

O=C(O)CCC1(CCC(=O)O)SCSCS1
inactive: [4] 93 % of control | [5] 98 % of control | [6] 93 % of control

O=C(NNC(=O)OCc1ccccc1)OCc1ccccc1
inactive: dose: 100.0 mg/kg/injection, schedule: Q01DX009 (ip), vehicle: Klucel (hydroxypropylcellulose) (HPC) 104 % of control | [4] 97 % of control | dose: 200.0 mg/kg/injection, schedule: Q01DX009 (ip), vehicle: Klucel (hydroxypropylcellulose) (HPC) 113 % of control | [5] 97 % of control | [6] 97 % of control

CC1(C)SC2C(NC(=O)COc3ccccc3)C(=O)N2C1C(=O)O (stereo unspecified) (tested in a mixture with another compound)
inactive: [1] 101 % of control | [2] 103 % of control | [3] 97 % of control

From PubChem BioAssay AID248 (DTP/NCI, 2004)
